The text below walks through data of patent publication US20220119379A1, “IMMUNOMODULATOR” (HITGEN INC., priority 2019, published 2022).

Molecules are shown by their SMILES. pEC50, pKd: −log10 of the molar value. Read-outs that look alike come from different tables or passages of the source. Some results are limits rather than exact numbers.

Experiment [1] addresses Sting protein (Homo sapiens, UniProt Q86WV6). As to the kind of experiment: Binding affinity test of the compound and Sting protein by protein thermal transfer test (TSA). The following applies: Kd fitted from change of ΔTm with compound concentration. As for the experimental part:
The protein thermal transfer test (TSA) was used to determine the binding affinity of the compound to Sting protein. The 100 ug/ml Sting protein was mixed with different concentrations of the compound and 5× SYPRO Orange dye in a buffer of 20 mM Hepes, 150 mM NaCl, 1 mM MgCl2, 1 mM DTT, pH=7.5. The protein dissolution curve was measured on a qPCR instrument, the Tm value was fitted with Protein Thermal Shift Software 1.3 software, and the Tm difference of the protein was calculated when different concentrations of compound and no compound were added. The dissociation constant Kd was fitted and obtained according to the change of ΔTm with the concentration of the compound. […] The Kd value of each compound is classified according to the following instructions: […]

Experiment [2] addresses T1, Sting protein (Homo sapiens, UniProt Q86WV6, G230A/H232R/R293Q/R71H).
T1 construct: endogenous in cells; host or cells: THP1 cells (Shanghai Cell Bank)
The experiment can be described thus: Agonistic function test on Sting protein: IFN-β and CXCL10 (IP10) cytokines produced by THP1 cells (ELISA). The class given is cell-based. The note with it: for pEC50: 18 hours, ELISA of supernatant; for activity of stimulating IFN-β and CXCL10 (IP10) cytokines produced by THP1 cells (in words): listed compounds compared with the reference compound. As for the experimental part: In this experiment, the function of sting agonist was evaluated by detecting the changes of IFN-β and CXCL10 (IP10) cytokines produced by human peripheral blood mononuclear cell line THP1 cells (Shanghai Cell Bank) stimulated by the compounds. On the first day of the experiment, the ELISA plate was coated according to the IFN-β (R&D, #DY814-05) and IP10 (BD, #550926) ELISA test kit instructions. The compound was dissolved into DMSO stock solution and diluted with culture medium to a 2× working concentration, added to a 96-well plate, 100 μL per well. The THP1 cells in the logarithmic growth phase were taken to count, and were diluted to a concentration of 2*10^6/mL, added to the above-mentioned 96-well plate containing the compounds, with […], per well, mixed well, and incubated in a 37° C., 5% CO2 incubator for 18 hours. On the second day, the above cell culture supernatant was taken, 100 μL per well, and tested according to IFN-β and IP10 ELISA test kits respectively. The OD450 value was read, and converted into IFN-β and IP10 concentration according to the standard curve, and fitted with GraphPad 5.0 to calculate the EC50 value of the dose-efficiency curve.
Background: ELISA stands for enzyme-linked immunosorbent assay.

Sequence of Sting protein (Homo sapiens, UniProt Q86WV6) (Q86WV6 whole entry H232R, species assumed): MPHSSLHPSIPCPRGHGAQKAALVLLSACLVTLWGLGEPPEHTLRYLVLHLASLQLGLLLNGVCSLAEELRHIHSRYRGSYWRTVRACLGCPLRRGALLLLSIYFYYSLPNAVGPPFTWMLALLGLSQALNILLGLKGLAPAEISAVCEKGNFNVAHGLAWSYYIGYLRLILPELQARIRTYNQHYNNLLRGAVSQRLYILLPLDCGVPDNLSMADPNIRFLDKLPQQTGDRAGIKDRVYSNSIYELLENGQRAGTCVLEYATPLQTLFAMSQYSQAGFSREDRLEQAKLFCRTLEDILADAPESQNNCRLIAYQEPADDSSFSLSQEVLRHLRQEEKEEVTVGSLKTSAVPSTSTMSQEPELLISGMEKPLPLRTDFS
T1 sequence (Q86WV6 whole entry R71H/G230A/H232R/R293Q): as the sequence (Q86WV6 whole entry H232R, species assumed) above, with R71H, G230A, R293Q counted along it

One may read the pKd as the Kd on a negative log10 scale, so that one unit is a factor of ten. The pEC50 is −log10 of the EC50, conventionally taken in molar units. As for `CCc1nc(C)sc1C(=O)Nc1nc2cc(C(N)=O)cc(OC)c2n1C/C=C/Cn1c(NC(=O)c2cc(C)nn2CC)nc2cc(C(N)=O)cc(SCCCN3CCOCC3)c21` [Example 6], in experiment [1], the pKd was 5.00 to 6.00. Further, the pEC50 in experiment [2] (read-out: IFN-β EC50) and in experiment [2] (read-out: IP10 EC50) was 6.00 to 7.00 in each case.
As to `CCc1nc(C)sc1C(=O)Nc1nc2cc(C(N)=O)cc(OCCCN3CCOCC3)c2n1C/C=C/Cn1c(NC(=O)c2c(F)c(C)nn2CC)nc2cc(C(N)=O)cc(OC)c21` [Example 47], the pKd in experiment [1] is 5.00 to 6.00. Also, the results for the pEC50 in experiment [2] (read-out: IFN-β EC50) and in experiment [2] (read-out: IP10 EC50) were under 6.00 and 7.00 to 8.00, respectively.
For `CCc1nc(C)sc1C(=O)Nc1nc2cc(C(N)=O)cc(OC)c2n1C/C=C/Cn1c(NC(=O)c2cc(C)nn2CC)nc2cc(C(N)=O)cc(OCCCN3CCN(CC)CC3)c21` [Example 13] the same measures were 5.00 to 6.00, 6.00 to 7.00 and 7.00 to 8.00.
In the case of `CCc1nc(C)sc1C(=O)Nc1nc2cc(C(N)=O)cc(SC)c2n1C/C=C/Cn1c(NC(=O)c2cc(C)nn2CC)nc2cc(C(N)=O)cc(OCCCN3CCN(C)CC3)c21` [Example 20], the pKd in experiment [1] is 5.00 to 6.00. Also, the values for the pEC50 in experiment [2] (read-out: IFN-β EC50) and in experiment [2] (read-out: IP10 EC50) were 6.00 to 7.00 and 7.00 to 8.00, respectively.
The corresponding values for `CCc1nc(C)sc1C(=O)Nc1nc2cc(C(N)=O)cc(OCCCN3CCOCC3)c2n1C/C=C/Cn1c(NC(=O)c2cc(C)nn2CC)nc2cc(C(N)=O)cc(OC)c21` [Example 1] are 5.00 to 6.00, 6.00 to 7.00 and 7.00 to 8.00.
Consider `CCc1nc(C)sc1C(=O)Nc1nc2cc(C(N)=O)cc(OC)c2n1C/C=C/Cn1c(NC(=O)c2cc(C)nn2CC)nc2cc(C(N)=O)cc(OCCCN3CCN(C)CC3)c21` [Example 12], for which the pKd in experiment [1] is 5.00 to 6.00. In addition, the pEC50 in experiment [2] (read-out: IP10 EC50) was 6.00 to 7.00.
Regarding `CCc1nc(C)sc1C(=O)Nc1nc2cc(C(N)=O)cc(OCCCN3CCOCC3)c2n1C/C=C/Cn1c(NC(=O)c2cc(C)nn2CC)nc2cc(C(N)=O)cc(SC)c21` [Example 4], the pKd in experiment [1] is 5.00 to 6.00. Further, the pEC50 was 7.00 to 8.00 in experiment [2] (read-out: IFN-β EC50) and over 8.00 in experiment [2] (read-out: IP10 EC50). The “activity of stimulating IFN-β and CXCL10 (IP10) cytokines produced by THP1 cells (in words)” value (from here on “activity of stimulating IFN-β and CXCL10”) in experiment [2] is given as “comparable or even higher activity”.
Regarding `CCc1nc(C)sc1C(=O)Nc1nc2cc(C(N)=O)cc(OCCCN3CCOCC3)c2n1C/C=C/Cn1c(NC(=O)c2sc(C)nc2CC)nc2cc(C(N)=O)cc(SC)c21` [Example 50], the pKd in experiment [1] is 5.00 to 6.00. In addition, the pEC50 in experiment [2] (read-out: IFN-β EC50) and in experiment [2] (read-out: IP10 EC50) was 7.00 to 8.00 each time. The “activity of stimulating IFN-β and CXCL10” value in experiment [2] is listed as “comparable or even higher activity”.
Consider `CCc1nc(C)sc1C(=O)Nc1nc2cc(C(N)=O)cc(OC)c2n1C/C=C/Cn1c(NC(=O)c2cc(C)nn2CC)nc2cc(C(N)=O)cc(OCCCN3CCN(C(C)C)CC3)c21` [Example 14], for which, in experiment [1], the pKd is 5.00 to 6.00. The pEC50 in experiment [2] (read-out: IFN-β EC50) and in experiment [2] (read-out: IP10 EC50) was 6.00 to 7.00 throughout.
`CCc1nc(C)sc1C(=O)Nc1nc2cc(C(N)=O)cc(OC)c2n1C/C=C/Cn1c(NC(=O)c2c(F)c(C)nn2CC)nc2cc(C(N)=O)cc(OCCCN3CCOCC3)c21` [Example 48]: the pKd in experiment [1] is 5.00 to 6.00. Further, the pEC50 in experiment [2] (read-out: IFN-β EC50) was 6.00 to 7.00; in experiment [2] (read-out: IP10 EC50), 7.00 to 8.00.
For `CCc1nc(C)sc1C(=O)Nc1nc2cc(C(N)=O)cc(OC)c2n1C/C=C/Cn1c(NC(=O)c2sc(C)nc2CC)nc2cc(C(N)=O)cc(OCCCN3CCOCC3)c21` [Example 3] the same measures were 5.00 to 6.00, 6.00 to 7.00 and 7.00 to 8.00.
Regarding `CCc1nc(C)sc1C(=O)Nc1nc2cc(C(N)=O)cc(OCCCN3CCOCC3)c2n1C/C=C/Cn1c(NC(=O)c2c(F)c(C)nn2CC)nc2cc(C(N)=O)cc(SC)c21` [Example 49], in experiment [1], the pKd was 5.00 to 6.00. In addition, the values for the pEC50 in experiment [2] (read-out: IFN-β EC50) and in experiment [2] (read-out: IP10 EC50) were 7.00 to 8.00 and over 8.00, respectively. The “activity of stimulating IFN-β and CXCL10” value in experiment [2] was “comparable or even higher activity”.
For the compound `CCc1nc(C)sc1C(=O)Nc1nc2cc(C(N)=O)cc(OCCCN3CCN(C(=O)OC)CC3)c2n1C/C=C/Cn1c(NC(=O)c2cc(C)nn2CC)nc2cc(C(N)=O)cc(SC)c21` [Example 40], in experiment [1], the pKd was 5.00 to 6.00. Also, in experiment [2] (read-out: IFN-β EC50), the pEC50 was 7.00 to 8.00. Moreover, the “activity of stimulating IFN-β and CXCL10” value in experiment [2] was “comparable or even higher activity”.
For `CCc1nc(C)sc1C(=O)Nc1nc2cc(C(N)=O)cc(SC)c2n1C/C=C/Cn1c(NC(=O)c2c(F)c(C)nn2CC)nc2cc(C(N)=O)cc(OCCCN3CCOCC3)c21` [Example 52], the pKd in experiment [1] is 5.00 to 6.00. Besides, the figures for the pEC50 in experiment [2] (read-out: IFN-β EC50) and in experiment [2] (read-out: IP10 EC50) were 7.00 to 8.00 and over 8.00, respectively. In addition, in experiment [2], the “activity of stimulating IFN-β and CXCL10” value is “comparable or even higher activity”.
As to `CCc1nc(C)sc1C(=O)Nc1nc2cc(C(N)=O)cc(OCCCN3CCN(C(C)C)CC3)c2n1C/C=C/Cn1c(NC(=O)c2cc(C)nn2CC)nc2cc(C(N)=O)cc(SC)c21` [Example 18], in experiment [1], the pKd was 5.00 to 6.00. Besides, the pEC50 was 6.00 to 7.00 in experiment [2] (read-out: IFN-β EC50) and 7.00 to 8.00 in experiment [2] (read-out: IP10 EC50).
In the case of `CCC(=O)N1CCN(CCCOc2cc(C(N)=O)cc3nc(NC(=O)c4cc(C)nn4CC)n(C/C=C/Cn4c(NC(=O)c5sc(C)nc5CC)nc5cc(C(N)=O)cc(OC)c54)c23)CC1` [Example 30], the pKd in experiment [1] was 5.00 to 6.00. Also, the pEC50 is 6.00 to 7.00 in experiment [2] (read-out: IFN-β EC50) and 7.00 to 8.00 in experiment [2] (read-out: IP10 EC50).
Consider `CCc1nc(C)sc1C(=O)Nc1nc2cc(C(N)=O)cc(OCCCN3CCN(C(C)=O)CC3)c2n1C/C=C/Cn1c(NC(=O)c2cc(C)nn2CC)nc2cc(C(N)=O)cc(SC)c21` [Example 35], for which the pKd in experiment [1] is 5.00 to 6.00. For the same compound, the pEC50 in experiment [2] (read-out: IFN-β EC50) and in experiment [2] (read-out: IP10 EC50) was 7.00 to 8.00 throughout. Moreover, the “activity of stimulating IFN-β and CXCL10” value in experiment [2] is on record as “comparable or even higher activity”.
Take `CCc1nc(C)sc1C(=O)Nc1nc2cc(C(N)=O)cc(OCCCN3CCN(C4CC4)CC3)c2n1C/C=C/Cn1c(NC(=O)c2cc(C)nn2CC)nc2cc(C(N)=O)cc(OC)c21` [Example 10]: the pKd in experiment [1] was 5.00 to 6.00. The pEC50 is 6.00 to 7.00 in experiment [2] (read-out: IFN-β EC50) and 7.00 to 8.00 in experiment [2] (read-out: IP10 EC50).
As for `CCc1nc(C)sc1C(=O)Nc1nc2cc(C(N)=O)cc(OCCCN3CCN(C)CC3)c2n1C/C=C/Cn1c(NC(=O)c2cc(C)nn2CC)nc2cc(C(N)=O)cc(SC)c21` [Example 16], the pKd in experiment [1] was 5.00 to 6.00. The negative-log EC50 (pEC50) in experiment [2] (read-out: IP10 EC50) was 6.00 to 7.00.
For the compound `CCn1nc(C)cc1C(=O)Nc1nc2cc(C(N)=O)cc(OCCCN3CCOCC3)c2n1C/C=C/Cn1c(NC(=O)c2cc(C)nn2CC)nc2cc(C(N)=O)cc(SC)c21` [Example 54, (E)-1-(4-(5-carbamoyl-2-(1-ethyl-3-methyl-1H-pyrazole-5-formylamino)-7-(3-morpholinopropoxy)-1H-benzo[d]imidazol-1-yl)but-2-en-1-yl)-2-(1-ethyl-3-methyl-1H-pyrazole-5-carboxamino)-7-(methylthio)-1H-benzo[d]imidazole-5-formylamide], the pKd in experiment [1] was 5.00 to 6.00.
